Data reported in patent publication US5162336A, “Tetrahydro-pyrido-indoles as cholecystokinin and gastrin antagonists” (Rhone-Poulenc Rorer Pharmaceuticals Inc., priority 1990, dated 1992).
Values belong to the molecule of their own block, whether it stands above or below them.

Legend:
CCK-A receptor = molecular target: T1, CCK-A receptor (Rattus norvegicus, UniProt P30551); assay: CCK-A receptor binding assay (displacement of 3H-L-364,718 from rat pancreas membranes); set-up: species or system Sprague-Dawley rat; conditions: 3H-L-364,718 0.2 nM, 37° C., 30 min, read-out: In vitro Binding Data IC50 CCK
T1 construct: from tissue; host or cells: pancreas membranes of Sprague-Dawley rat
T1 sequence (P30551 1-444): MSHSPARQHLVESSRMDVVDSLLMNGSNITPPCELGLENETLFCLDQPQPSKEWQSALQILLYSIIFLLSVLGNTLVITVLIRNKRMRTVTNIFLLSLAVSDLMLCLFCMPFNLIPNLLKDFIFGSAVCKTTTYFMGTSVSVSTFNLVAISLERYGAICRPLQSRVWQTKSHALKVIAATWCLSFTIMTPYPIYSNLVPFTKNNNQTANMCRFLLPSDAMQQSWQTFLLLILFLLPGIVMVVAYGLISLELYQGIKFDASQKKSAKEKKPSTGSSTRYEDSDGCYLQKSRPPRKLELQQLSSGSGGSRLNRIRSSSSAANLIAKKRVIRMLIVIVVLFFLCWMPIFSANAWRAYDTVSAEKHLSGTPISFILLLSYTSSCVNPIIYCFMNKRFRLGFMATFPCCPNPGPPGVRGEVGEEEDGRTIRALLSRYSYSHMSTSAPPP
Method: Washer Buffer (for use with Brandel Cell Harvester):
30 liters of 50 mM Tris, ph 7.7: Dissolve 181.7 g. Tris base in 4 1. deionized water at room temperature. Adjust pH to 7.7 with 6 N HCl and Q.S. to 30 1.
50 mM Tris-Cl, 5 mM MgCl2, 5 mM dithio-thretiol, 0.14 mg/ml bacitracin, and 2 mg/ml bovine serum albumin.
1 liter of 5X stock buffer:
30.28 g. Tris base per 800 ml D.I. water 5.09 g. MgCl2 6 H2 O, pH to 7.7 at room temperature with 6N HCl and Q.S. 1 liter, store at 4° C.
250 ml working buffer kept on ice:
50 ml of 5X stock buffer 0.1928 g. dithiothretiol (5 mM), 35 mg bacitracin (0.14 mg/ml), and 0.5 g. BSA (2mg/ml).
Unlabeled L-364,718(nonpeptide ligand):
Unlabeled L-364,718 (300 nM final concentration) is used to define nonspecific binding. A 3 mM solution is made in absolute ethanol and stored in a scintillation vial at -70° C. Aliquots are diluted 100-fold in the assay.
A Sprague-Dawley rat is sacrificed by asphyxiation with carbon dioxide and the pancreas removed. The tissue is immersed in cold wash buffer and carefully trimmed of fat, connective tissue, blood vessels, blotted and weighed. The tissue is homogenized in a Sorvall SS-34 centrifuge tube in 50 volumes of wash buffer using a Polytron at setting 7 for 15 seconds. The tissue is centrifuged (Sorvall SS-34) at 19,000 rpm for 10 min. The supernatant is poured off and the pellet resuspended in sufficient buffer to obtain a contraction of 40 mg tissue wet weight/ml. Separate aliquots (2,3ml) are placed in each of 8 centrifuge tubes and centrifuged as before. The supernatants are poured off and the pellets stored at -70° C. Stored pellets are sufficient for the assay of 160 tubes and are stable for 1-2 months.
During the assay the stored membranes are resuspended in 40 ml of assay buffer by scraping the pellet off the wall of the centrifuge tube and washing it into a teflon-glass homogenizer. Membranes are resuspended by 5 passes with the teflon pestle and the membranes stored on ice until ready for use.
Preparation of Compounds:
Compounds are prepared in DMSO (dimethyl sulfoxide) or in assay buffer. The majority of structures active as CCK antagonists generally require DMSO for complete solubility. Approximately 2-3 mg of compound is weighed directly into a 13×100 mm test tube and sufficient DMSO added to obtain a working stock solution at a concentration 100 fold greater than the highest concentration being tested in the assay. A total of 10 μl of each concentration of drug is added into a final volume of 1 ml to yield a 100 fold dilution of the, working stock solution. Control binding tubes ("totals and nonspecifics") are also treated with 10 μl DMSO.
^3 H-L-364,718 is obtained from New England Nuclear (Cat. #971) and is used as supplied. The final assay concentration of ^3 H-L-364,718 in assay buffer should be 0.2 nM in a final assay volume of 1 ml. ^3 H-L-364,718 (0.2 pmol) is added into the assay in a volume of 25 μl (8 nM working stock solution). The required dilution (usually>1000 fold) is obtained by dividing the working stock concentration into the concentration of the specific lot.
Samples are prepared in triplicate and a "total" (buffer addition) and "nonspecific" (300 nM unlabeled L-364,718) set of tubes included in each set of 24 tubes. The remaining 6 sets of triplicates are used either for screening or IC50 determinations. The order of addition is drugs-DMSO, buffer, unlabeled L-364,718, ^3 H-L-364,718, and to start the assay, membranes.
While tubes are incubating a shaking water bath at 37° C. for 30 min Brandel deposit/dispense filters are presoaked in wash buffer. Following the end of the incubation, sets of 24 tubes are rapidly washed with assay buffer as follows. Assay buffer is added to the incubation tubes to the height of the uppermost cross support in the standard Brandel test tube rack and the contents immediately aspirated. This process is repeated twice more, the filter removed, marked and the next set of 24 tubes processed. […]

Gastrin receptor [1] = molecular target: T2, Gastrin receptor (Cavia porcellus, UniProt H0VZC5); assay: Gastrin receptor binding assay (displacement of 125I-(Leu-15)-Gastrin from guinea pig fundic glands); set-up: species or system guinea pig (Hartley Strain); conditions: guinea pig fundic mucosa glands, 25° C., 30 min, read-out: In vitro Binding Data IC50 Gastrin
T2 construct: The fundic mucosa is gently scraped off the submucosa; from tissue; host or cells: gastric glands from fundic mucosa of Hartley guinea pig
T2 sequence (H0VZC5 1-426): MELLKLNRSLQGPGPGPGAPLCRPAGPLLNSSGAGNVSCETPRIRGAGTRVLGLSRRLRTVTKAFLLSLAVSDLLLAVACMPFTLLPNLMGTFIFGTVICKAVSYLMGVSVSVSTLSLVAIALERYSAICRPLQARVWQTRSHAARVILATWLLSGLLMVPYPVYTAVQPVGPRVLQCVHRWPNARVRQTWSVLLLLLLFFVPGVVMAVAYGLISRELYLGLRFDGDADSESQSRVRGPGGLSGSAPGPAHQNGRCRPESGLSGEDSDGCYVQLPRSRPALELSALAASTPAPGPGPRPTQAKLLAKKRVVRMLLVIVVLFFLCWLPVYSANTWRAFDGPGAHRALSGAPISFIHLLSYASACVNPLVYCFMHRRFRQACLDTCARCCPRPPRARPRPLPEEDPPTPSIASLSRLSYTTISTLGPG
Method: (a) Phosphate Buffered Saline (PBS): 8.743 g NaCl, 523 mg K2 HPO4 and 76.8 mg NaH2 PO4 is dissolved in 1.0 liter of deionized water and the pH of the solution is adjusted to 7.3 with 5N NaOH.
(b) Buffer A: While adding Basal Medium Eagle (BME) containing Earle's Salts, L-glutamine and 25 mM HEPES, 3 liters of deionized water is stirred, followed by the addition and dissolution of […] of sodium bicarbonate. The solution is then equilibrated with 95% O2 /5% CO2 gas followed by titration to a pH of 7.4 with NaOH.
(c) Buffer B: 18.75 mg of collagenase and […] of BSA is dissolved in 25 ml of Buffer A.
(d) Buffer C: 0.3 g of BSA is dissolved in 300 ml of Buffer A.
(e) 6.25 mg Bacitracin is dissolved in 25 ml of Buffer A.
(f) ^125 I-(Leu-15)-Gastrin: 100 microcurie dissolved in 2.0 ml of Buffer A to make 50 microcurie/ml.
(g) ^125 I-(15-methionine)-Human Gastrin: 50 microcurie/ml.
(h) (Leu 15)-Gastrin: 5.2 mg of (Leu-15)- Gastrin is dissolved in 10 ml of Buffer A. At the time of assay 1:10 dilution is made and 10 μl assay tube is used.
A guinea pig (Hartley Strain) weighing 150-200 grams, is sacrificed by CO2 asphyxiation and the stomach immediately excised, cut along the greater curvature, cleaned out and immediately immersed in a beaker containing cold PBS, pH 7.3, to insure thorough cleaning. The fundic mucosa is gently scraped off the submucosa and added to a preweighed 50 ml plastic centrifuge tube containing 30 ml of cold Buffer A. The weight of the plastic centrifuge tube containing the buffer is then subtracted from the combined weight of the mucosa and the buffer-containing tube to give the weight of the mucosa. The weight of the mucosa thus determined is recorded for later calculations.
The mucosa is then washed twice in Buffer A. After the final wash, the tissue is minced and is placed in a 100-ml glass beaker containing about 1.0 ml of Buffer A, and washed twice again by repeated centrifugation at 50×g for 5 minutes each and aspiration of supernatant. The washed tissue fragments are then added to a glass Erlenmeyer flask containing 25 ml of Buffer B and incubated in a Dubnoff shaking water bath at 37° C. for 30 minutes in a 95% O2 - 5% CO2 atmosphere. After the incubation, the digested tissue fragments in the Collegenase-buffer solution are triturated, filtered through a 200-micron nylon mesh and centrifuged at 50×g for 5 minutes. The supernatant is aspirated and discarded, the tissue washed 2× in Buffer C, resuspended in same buffer, incubated in a 37° C. water bath in an atmosphere of 95% O2 - 5% CO2 for 5 minutes, and centrifuged. The pelleted glands are suspended in Buffer D at a desired concentration of 2x10^5 glands/ml to use in the receptor binding assay.
Six minisorp tubes (16×100 mm) are serially marked and divided into two groups thus: tubes #1, #2, and #3 are marked "T" for "Totals" and tubes #4, #5, and #6 are marked "NS" for "Non-Specifics." Into each of the six tubes are added 220 μl of prepared glands in Buffer D; 20 μl of Buffer A in tubes #1, #2, and #3; 10 μl, in tubes #4, #5 and #6; (10μ of (Leu-15)-Gastrin (25 μM) in tubes #4, #5, and #6. The six tubes are then transferred immediately to a 25° C. water bath and challenged each with 10 μl ^125 I-(Leu-15)-Gastrin diluted as per calculation. The tubes are then covered with a gas hood connected to a 95% O2 - 5% CO2 gas source and mechanically agitated in a shaker for 30 minutes.
At the end of the incubation period, the assay mixtures are each filtered through a Whatman glass fiber filter B on a Brandel tissue harvester and washed twice with Buffer A. The filters are pre-soaked in Buffer C before use. The filter strips are removed after the final wash and individual filters counted in a Gamma Counter. The counts from the "Non-Specific" tubes are then averaged and subtracted from the average "Totals" to give the Specific Counts. […]

[2] = system: peripherial gastrin and CCK-B (brain) receptors; conditions: cited from earlier work
[3] = system: CCK-A (peripheral CCK) receptor; conditions: second generation proglumide analogues; cited from earlier work
gastrin receptor [4] = conditions: cited from earlier work
gastrin receptor [5] = conditions: cited from earlier work; remark: listed apart in the source
gastrin = conditions: rat (in vivo); cited from earlier work

IC50 (CCK-A receptor): 25 µM
Molecule: NC(=O)[C@H](CC(=O)OCc1ccccc1)NC(=O)[C@H]1Cc2c([nH]c3ccccc23)CN1C(=O)c1ccccc1 [Example 7, N-[(3R)-2-benzoyl-1,2,3,4-tetrahydro-9H-pyrido[3,4-b]indole-3-carboxyl]-L-aspartic acid amide β-benzyl ester]

IC50 (Gastrin receptor [1]): 90 µM
Molecule: COc1ccc(NC(=O)N2Cc3[nH]c4ccccc4c3C[C@@H]2C(=O)Nc2ccccc2C(=O)N2CCCC2)cc1 [Example 21, pyrrolidine-2-N-[(3R)-2-(4-methoxyphenylcarbamoyl)-1,2,3,4-tetrahydro-9H-pyrido[3,4-b]indole-3-carboxyl]aminobenzamide]

IC50 (Gastrin receptor [1]): 0.23 µM
Molecule: NC(=O)[C@H](CC(=O)O)NC(=O)[C@@H]1CCCN1C(=O)[C@H]1Cc2c([nH]c3ccccc23)CN1C(=O)Nc1ccc(Cl)c(Cl)c1 [Example 25]

IC50 (Gastrin receptor [1]): 4 µM
Molecule: CC(C)C[C@@H](NC(=O)[C@@H]1Cc2c([nH]c3ccccc23)CN1C(=O)Nc1ccc(Cl)c(Cl)c1)C(=O)N[C@H](CC(=O)O)C(N)=O [Example 71]

Molecule: Cc1cccc(NC(=O)N[C@@H]2N=C(c3ccccc3)c3ccccc3N(C)C2=O)c1 [L-365,260]
selectivity for peripheral gastrin and CCK-B (brain) receptors [2]: selective for the peripherial gastrin and CCK-B (brain) receptors

Molecule: CCCCCN(CCCCC)C(=O)C(CCC(=O)O)NC(=O)c1ccc(Cl)c(Cl)c1 (centres unmarked) [Lorglumide]
receptor affinity and selectivity [3]: considerably better receptor affinity and selectivity

Molecule: CCCCCN(CCCOC)C(=O)C(CCC(=O)O)NC(=O)c1ccc(Cl)c(Cl)c1 (centres unmarked) [Loxiglumide]
receptor affinity and selectivity [3]: considerably better receptor affinity and selectivity

Molecule: Boc-Trp-Leu-.PSI.(CH2 NH)-Asp-Phe-NH2
binding affinity (gastrin receptor [4]; compared with Boc-Trp-Leu-Asp-Phe-NH2): same binding affinity as Boc-Trp-Leu-Asp-Phe-NH2
agonist activity (gastrin receptor [5]): no agonist activity

Molecule: Boc-Trp-Leu-gAsp-m(R,S)Phe-NH2
block the effects of gastrin (gastrin): block the effects of gastrin
binding to the gastrin receptor (gastrin receptor [4]; analogues of CCK-4 with partial retroinverso modifications): bind strongly
